Molecular target: T1, human TRPM8 (Homo sapiens, UniProt Q7Z2W7)
T1 construct: expressed in transfected cells
Experiment: In Vitro human TRPM8 Functional Assay (intracellular Ca2+, Fluo4, FDSS, menthol activation)
Type: cell-based
Details: HEK293 cells stably expressing human TRPM8; activation with L-(-)-Menthol; 11-point dose-response
Protocol: In Vitro human TRPM8 Functional Assay
The functional activity of compounds was determined by measuring changes in intracellular calcium concentration using a Ca^2+-sensitive fluorescent dye, Fluo4 (Molecular Probes). The changes in fluorescent signal were monitored by the cell imaging technology by Hamamatsu Photonics's Functional Drug Screening System (FDSS).
HEK293 cells stably expressing human TRPM8 were grown in T175 flasks, in a 5% CO2 humidified incubator to about 80% confluence. Media composition consisted of Dulbecco's Modified Eagle Medium (high glucose), 10% fetal calf serum (FCS), 100 units/ml Penicillin, 100 microg/ml Streptomycin and 600 microg/ml Geneticine.
1. Plate-out HEK293-TRPM8 cells (40 microL medium containing 30,000 cells per well) into poly-D-lysine coated 384-well plates (BD FALCON) at 24 hours prior to assay.
1. […] 2. […] 3. Place the plate at room temperature in dark for 1 hour. 4. […] 5. Add 20 microL of compound solutions into each well and leave the plate for 5 minutes under the dark at room temperature. 6. Measure activity by FDSS as follows: • Set the assay plate on the stacker of FDSS • Start the detection of fluorescence intensity • After 30 sec, add 20 microL of 90 microM L-(−)-Menthol
IC50 values for compounds of the present invention were determined from 11-point dose-response studies. Curves were generated using the average of duplicate wells for each data point. Finally, the IC50 values are calculated with the best-fit dose curve determined by XLfit (ID Business Solutions Ltd.).

T1 sequence (Q7Z2W7 whole entry): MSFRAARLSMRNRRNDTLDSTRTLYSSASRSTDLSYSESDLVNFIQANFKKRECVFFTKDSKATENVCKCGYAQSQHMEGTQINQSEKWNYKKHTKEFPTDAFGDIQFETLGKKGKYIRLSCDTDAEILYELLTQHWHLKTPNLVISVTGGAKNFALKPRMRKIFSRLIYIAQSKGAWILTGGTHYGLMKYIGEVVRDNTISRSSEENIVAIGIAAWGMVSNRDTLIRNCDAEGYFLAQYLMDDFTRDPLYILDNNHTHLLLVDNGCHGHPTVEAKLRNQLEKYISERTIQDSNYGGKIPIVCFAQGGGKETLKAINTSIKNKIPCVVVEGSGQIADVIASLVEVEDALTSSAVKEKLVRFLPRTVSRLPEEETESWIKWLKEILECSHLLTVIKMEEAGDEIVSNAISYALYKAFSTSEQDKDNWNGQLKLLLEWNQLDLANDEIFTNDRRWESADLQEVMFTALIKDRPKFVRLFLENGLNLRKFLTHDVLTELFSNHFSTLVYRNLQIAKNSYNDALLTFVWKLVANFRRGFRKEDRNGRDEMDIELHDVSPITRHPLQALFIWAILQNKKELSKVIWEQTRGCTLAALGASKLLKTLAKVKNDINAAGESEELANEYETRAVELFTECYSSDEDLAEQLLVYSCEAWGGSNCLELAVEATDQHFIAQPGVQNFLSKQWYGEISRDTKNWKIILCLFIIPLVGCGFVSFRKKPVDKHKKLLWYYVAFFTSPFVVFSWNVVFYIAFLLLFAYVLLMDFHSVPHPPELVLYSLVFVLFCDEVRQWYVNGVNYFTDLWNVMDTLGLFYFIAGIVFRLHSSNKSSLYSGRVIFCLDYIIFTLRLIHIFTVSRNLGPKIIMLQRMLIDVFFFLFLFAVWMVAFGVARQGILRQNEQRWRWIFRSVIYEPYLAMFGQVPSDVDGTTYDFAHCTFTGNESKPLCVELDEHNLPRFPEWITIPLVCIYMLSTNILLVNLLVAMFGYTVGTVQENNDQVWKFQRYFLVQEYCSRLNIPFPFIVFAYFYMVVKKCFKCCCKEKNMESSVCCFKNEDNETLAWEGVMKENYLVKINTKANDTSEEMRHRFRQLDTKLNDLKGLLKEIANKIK

Row | SMILES | IC50 [nM]
1 | O=C(O)c1ccc(S(=O)(=O)N(Cc2ccccc2OC(F)(F)F)c2ncc(C(F)(F)F)cc2Cl)cc1 [Example 51, 4-(N-(3-Chloro-5-(trifluoromethyl)pyridin-2-yl)-N-(2-(trifluoromethoxy)benzyl)sulfamoyl)benzoic acid] | < 1000
2 | O=C(O)c1ccc(S(=O)(=O)N(Cc2ccccc2)c2ccc(C(F)(F)F)cc2Cl)cc1 [Example 56, 4-(N-Benzyl-N-(2-chloro-4-(trifluoromethyl)phenyl)sulfamoyl)benzoic acid] | < 1000
3 | O=C(O)c1ccc(S(=O)(=O)N(CCN2CCOCC2)c2ncc(C(F)(F)F)cc2Cl)cc1 [Example 57, 4-(N-(3-Chloro-5-(trifluoromethyl)pyridin-2-yl)-N-(2-morpholinoethyl)sulfamoyl)benzoic acid] | 1000 to 10000
4 | O=C(O)c1ccc(S(=O)(=O)N(CCCc2ccccc2)c2ncc(C(F)(F)F)cc2Cl)cc1 [Example 59, 4-(N-(3-Chloro-5-(trifluoromethyl)pyridin-2-yl)-N-(3-phenylpropyl)sulfamoyl)benzoic acid] | < 1000
5 | O=C(O)c1ccc(S(=O)(=O)N(Cc2ccccc2C(F)(F)F)c2ncc(Cl)cc2Cl)cc1 [Example 64, 4-(N-(3,5-Dichloropyridin-2-yl)-N-(2-(trifluoromethyl)benzyl)sulfamoyl)benzoic acid] | < 1000
6 | O=C(O)c1ccc(S(=O)(=O)N(Cc2ccc(Cl)c(F)c2)c2ncc(C(F)(F)F)cc2Cl)cc1 [Example 65, 4-(N-(4-Chloro-3-fluorobenzyl)-N-(3-chloro-5-(trifluoromethyl)pyridin-2-yl)sulfamoyl)benzoic acid] | < 1000
7 | O=C(O)c1ccc(S(=O)(=O)N(Cc2ccc(Cl)c(C(F)(F)F)c2)c2ncc(Cl)cc2Cl)cc1 [Example 66, 4-(N-(4-Chloro-3-(trifluoromethyl)benzyl)-N-(3,5-dichloropyridin-2-yl)sulfamoyl)benzoic acid] | < 1000
8 | Cc1ccc(CN(c2ncc(Cl)cc2Cl)S(=O)(=O)c2ccc(C(=O)O)cc2)cc1F [Example 67, 4-(N-(3,5-Dichloropyridin-2-yl)-N-(3-fluoro-4-methylbenzyl)sulfamoyl)benzoic acid] | < 1000
9 | Cc1ccc(CN(c2ncc(Cl)cc2Cl)S(=O)(=O)c2ccc(C(=O)O)cc2)cc1C(F)(F)F [Example 68, 4-(N-(3,5-dichloropyridin-2-yl)-N-(4-methyl-3-(trifluoromethyl)benzyl)sulfamoyl)benzoic acid] | < 1000
10 | CC1(c2ccc(CN(c3ncc(Cl)cc3Cl)S(=O)(=O)c3ccc(C(=O)O)cc3)cc2)CC1 [Example 70, 4-(N-(3,5-Dichloropyridin-2-yl)-N-(4-(1-methylcyclopropyl)benzyl)sulfamoyl)benzoic acid] | < 1000
11 | O=C(O)c1ccc(S(=O)(=O)N(Cc2ccc(Cl)cc2C(F)(F)F)c2ncc(Cl)cc2Cl)cc1 [Example 72, 4-(N-(4-Chloro-2-(trifluoromethyl)benzyl)-N-(3,5-dichloropyridin-2-yl)sulfamoyl)benzoic acid] | < 1000
12 | Cc1cc(Cl)cnc1N(Cc1ccc(F)c(C(F)(F)F)c1)S(=O)(=O)c1ccc(C(=O)O)cc1 [Example 76, 4-(N-(5-Chloro-3-methylpyridin-2-yl)-N-(4-fluoro-3-(trifluoromethyl)benzyl)sulfamoyl)benzoic acid] | < 1000
13 | Cc1cc(Cl)cnc1N(Cc1ccc(F)c(Cl)c1)S(=O)(=O)c1ccc(C(=O)O)cc1 [Example 77, 4-(N-(5-Chloro-3-methylpyridin-2-yl)-N-(3-chloro-4-fluorobenzyl)sulfamoyl)benzoic acid] | < 1000
14 | Cc1cc(Cl)cnc1N(Cc1ccc(OC(F)(F)F)cc1)S(=O)(=O)c1ccc(C(=O)O)cc1 [Example 78, 4-(N-(5-Chloro-3-methylpyridin-2-yl)-N-(4-(trifluoromethoxy)benzyl)sulfamoyl)benzoic acid] | < 1000
15 | Cc1cc(Cl)cnc1N(Cc1ccc(Cl)c(C(F)(F)F)c1)S(=O)(=O)c1ccc(C(=O)O)cc1 [Example 79, 4-(N-(4-Chloro-3-(trifluoromethyl)benzyl)-N-(5-chloro-3-methylpyridin-2-yl)sulfamoyl)benzoic acid] | < 1000
16 | O=C(O)c1ccc(S(=O)(=O)N(CCN2CCOCC2)c2ccc(C(F)(F)F)cc2Cl)cc1 [Example 81, 4-(N-(2-Chloro-4-(trifluoromethyl)phenyl)-N-(2-morpholinoethyl)sulfamoyl)benzoic acid] | 1000 to 10000
17 | COc1cccc(N(CC(=O)N2CCN(Cc3ccccc3)CC2)S(=O)(=O)c2ccccc2)c1 [Example 84, N-(2-(4-Benzylpiperazin-1-yl)-2-oxoethyl)-N-(3-methoxyphenyl)benzene-sulfonamide] | 1000 to 10000
18 | COc1ccc(OC)c(C(C)N(c2ccc(C)cc2)S(=O)(=O)c2ccc(C)cc2)c1 (stereo not shown) [Example 85, N-(1-(2,5-Dimethoxyphenyl)ethyl)-4-methyl-N-p-tolylbenzenesulfonamide] | 1000 to 10000
19 | COc1ccc(OC)c(C(C)N(c2cccc(Cl)c2)S(=O)(=O)c2ccc(C)cc2)c1 (stereo not shown) [Example 86, N-(3-Chlorophenyl)-N-(1-(2,5-dimethoxyphenyl)ethyl)-4-methylbenzene-sulfonamide] | 1000 to 10000
20 | COc1ccc(N(C(C)c2ccccc2F)S(=O)(=O)c2ccc(F)cc2)cc1 (stereo not shown) [Example 88, 4-Fluoro-N-(1-(2-fluorophenyl)ethyl)-N-(4-methoxyphenyl)benzene-sulfonamide] | < 1000

Continued, values first:

Row | IC50 [nM] | SMILES
21 | < 1000 | O=C(O)c1ccc(S(=O)(=O)N(Cc2ccc(C(F)(F)F)cc2)c2ncc(Cl)cc2Cl)cc1 [Example 54, 4-(N-(3,5-Dichloropyridin-2-yl)-N-(4-(trifluoromethyl)benzyl)sulfamoyl)benzoic acid]
22 | < 1000 | Cc1cc(Cl)cnc1N(Cc1ccc(C(F)(F)F)cc1)S(=O)(=O)c1ccc(C(=O)O)cc1 [Example 55, 4-(N-(5-Chloro-3-methylpyridin-2-yl)-N-(4-(trifluoromethyl)benzyl)sulfamoyl)benzoic acid]
23 | < 1000 | O=C(O)c1ccc(S(=O)(=O)N(Cc2ccc(F)cc2)c2ncc(Cl)cc2Cl)cc1 [Example 61, 4-(N-(3,5-Dichloropyridin-2-yl)-N-(4-fluorobenzyl)sulfamoyl)benzoic acid]
24 | < 1000 | O=C(O)c1ccc(S(=O)(=O)N(Cc2ccc(Cl)c(F)c2)c2ncc(Cl)cc2Cl)cc1 [Example 62, 4-(N-(4-Chloro-3-fluorobenzyl)-N-(3,5-dichloropyridin-2-yl)sulfamoyl)benzoic acid]
25 | < 1000 | O=C(O)c1ccc(S(=O)(=O)N(Cc2ccc(OC(F)(F)F)cc2)c2ncc(Cl)cc2Cl)cc1 [Example 63, 4-(N-(3,5-Dichloropyridin-2-yl)-N-(4-(trifluoromethoxy)benzyl)sulfamoyl)benzoic acid]
26 | < 1000 | O=C(O)c1ccc(S(=O)(=O)N(Cc2ccc(F)c(Cl)c2)c2ncc(Cl)cc2Cl)cc1 [Example 69, 4-(N-(3-Chloro-4-fluorobenzyl)-N-(3,5-dichloropyridin-2-yl)sulfamoyl)benzoic acid]
27 | < 1000 | O=C(O)c1ccc(S(=O)(=O)N(Cc2ccc(F)c(Cl)c2)c2ncc(C(F)(F)F)cc2Cl)cc1 [Example 71, 4-(N-(3-Chloro-4-fluorobenzyl)-N-(3-chloro-5-(trifluoromethyl)pyridin-2-yl)sulfamoyl)benzoic acid]
28 | 10000 to 30000 | O=C(O)c1ccc(S(=O)(=O)N(CCOc2ccc(F)cc2)c2ncc(Cl)cc2Cl)cc1 [Example 73, 4-(N-(3,5-Dichloropyridin-2-yl)-N-(2-(4-fluorophenoxy)ethyl)sulfamoyl)benzoic acid]
29 | 1000 to 10000 | O=C(O)c1ccc(S(=O)(=O)N(Cc2ccc(N3CCCC3=O)cc2)c2ncc(Cl)cc2Cl)cc1 [Example 74, 4-(N-(3,5-Dichloropyridin-2-yl)-N-(4-(2-oxopyrrolidin-1-yl)benzyl)sulfamoyl)benzoic acid]
30 | < 1000 | Cc1cc(Cl)cnc1N(Cc1ccc(Cl)cc1C(F)(F)F)S(=O)(=O)c1ccc(C(=O)O)cc1 [Example 75, 4-(N-(4-Chloro-2-(trifluoromethyl)benzyl)-N-(5-chloro-3-methylpyridin-2-yl)sulfamoyl)benzoic acid]
31 | 1000 to 10000 | Cc1cc(Cl)cnc1N(Cc1ccc(N2CCCC2=O)cc1)S(=O)(=O)c1ccc(C(=O)O)cc1 [Example 80, 4-(N-(5-Chloro-3-methylpyridin-2-yl)-N-(4-(2-oxopyrrolidin-1-yl)benzyl)sulfamoyl)benzoic acid]
32 | 1000 to 10000 | O=C(O)c1ccc(S(=O)(=O)N(Cc2ccccn2)c2ccc(C(F)(F)F)cc2Cl)cc1 [Example 82, 4-(N-(2-Chloro-4-(trifluoromethyl)phenyl)-N-(pyridin-2-ylmethyl)sulfamoyl)benzoic acid]
33 | 1000 to 10000 | O=C(O)c1ccc(S(=O)(=O)N(CCN2CCCCC2)c2ccc(C(F)(F)F)cc2Cl)cc1 [Example 83, 4-(N-(2-Chloro-4-(trifluoromethyl)phenyl)-N-(2-(piperidin-1-yl)ethyl)sulfamoyl)benzoic acid]
34 | 1000 to 10000 | COc1ccc(N(C(C)c2ccc(Cl)cc2)S(=O)(=O)c2ccccc2)cc1 (stereo not shown) [Example 87, N-(1-(4-Chlorophenyl)ethyl)-N-(4-methoxyphenyl) benzenesulfonamide]

Source: patent US20120094964A1, “SULFAMOYL BENZOIC ACID DERIVATIVES AS TRPM8 ANTAGONISTS” (priority 2009, published 2012)
